The values below come from paper PMC11614538, “The proline-rich antimicrobial peptide B7-005: low bacterial resistance, safe for human cells and effective in zebrafish embryo bacteraemia model” (Open Biology, 2024).

The term pIC50 denotes the IC50 on a negative log10 scale, so that one unit is a factor of ten.

pIC50: −log10 of the molar value. Residues, ends and D or L forms follow the SMILES beside them.

Data set [1] relates to HUVECs. As to the kind of experiment: Cell viability MTS, HUVEC. To be noted: 24 h. In kind it is cell-based, human. Here is the method: (§1) Chronic lymphocytic leukaemia-derived MEC-1 cells were cultured in suspension using complete RPMI (EuroClone), supplemented with 100 U ml^−1 penicillin (Sigma), 100 μg ml^−1 streptomycin (Sigma), 2 mM L-glutamine and 10% (v/v) foetal bovine serum (FBS, EuroClone). A549 human lung carcinoma epithelial cells and immortalized human keratinocytes (HaCaT) were grown in adhesion in complete high glucose Dulbecco’s MEM (DMEM, EuroClone) supplemented with 100 U ml^−1 penicillin (Sigma), […] streptomycin (Sigma), 2 mM L-glutamine and 10% (v/v) of FBS. […] All cell lines were counted in a Bürker chamber and diluted to the desired working concentrations.
(§2) Cell viability was evaluated by tetrazolium salt (MTT, or MTS for HUVECs only) tests. […] The next day, absorbance was measured at 570 nm using a Nanoquant Infinite-M200Pro plate reader (Tecan, Switzerland).
(§3) HUVECs, 7500 cells per well, were seeded in HESFM with 10% FBS in a 96-well flat-bottomed microtitre plate (EuroClone SpA, Italy). […] The plate was then incubated for 2 h at 37°C in a humidified 5% CO2 atmosphere, and the absorbance was measured at 490 nm, using a spectrophotometer (PowerWaveX, Bio-Tek Instruments). The cytotoxicity was calculated by comparing the absorbance of peptide-treated samples with that of the untreated control and expressed in percentage of vitality. […]

The conditions of data set [2]: ref [20]; cited from earlier work. The text has this: The bioavailability in human serum of a peptide intended for clinical systemic use is a critical parameter for the success of peptide-based drugs. […] However, irreversible sequestration of the peptide by serum proteins at higher serum concentrations could also impair its antimicrobial activity. To check if the peptide maintained its availability under conditions closer to the clinical o ...

Data set [3] relates to E. coli ATCC 25922. The data set is described as follows: MIC against E. coli ATCC 25922 in the presence of human serum. It counts as cell-based, Escherichia coli. Here is the method:
Escherichia coli ATCC 25922 was purchased from the American Type Culture Collection (ATCC) (Manassas, Virginia, USA) and stored at −80°C as glycerol stock until use. Bacterial cultures were grown overnight in sterile Müller–Hinton broth (MHB) (Difco Inc.) at 37°C under agitation (140 r.p.m.). The next day, the cultures were diluted 1 : 30 in new MHB and incubated as described above for about 2 h (mean logarithmic phase) until they reached an optical density at 600 nm of about 0.3 and then diluted in fresh MHB to the desired concentrations.
The effects of human serum on the antimicrobial activity of B7-005 were assessed by performing a minimum inhibitory concentration (MIC) assay with some modifications. Non-heat-inactivated human serum (Merk Life Science S.r.l., USA) was diluted to 50%, 40%, 30%, 25%, and 20% (v/v) in MHB and the solutions were aliquoted into the wells of a round-bottomed 96-well microtitre plate (Sarstedt, Milan, Italy). Samples with no serum were used for comparison. B7-005 was diluted in MHB added with the proper amount of serum to a concentration of 128 μM, added to the first column of the plate and serially diluted twofold in MHB, added with the proper amount of serum, in the subsequent wells in a final volume of 50 μl. Then 50 μl of a mid-log suspension of 5 × 10^5 CFU ml^−1 E. coli ATCC 25922 cells prepared in MHB added with the proper amount of serum was added to each well of the plate, halving the final concentration of bacteria and peptide. The plate was incubated at 37°C for 18 h. The MIC value was calculated as the lowest concentration of the compound resulting in complete inhibition of visible bacterial growth. MIC values were determined by performing at least three independent experiments (n ≥ 3).

The subject of data set [4] is MEC-1 cells. As to the kind of experiment: Cell viability MTT, MEC-1. In kind it is cell-based, human. To be noted: MEC-1, 24 h, RPMI, n ≥ 9. The method, then:
as §1, §2, §3

With `CC[C@H](C)[C@H](NC(=O)[C@H](CCCNC(=N)N)NC(=O)[C@@H](N)Cc1c[nH]c2ccccc12)C(=O)N[C@@H](CCCNC(=N)N)C(=O)N[C@@H](CCCNC(=N)N)C(=O)N[C@@H](CCCNC(=N)N)C(=O)N[C@@H](Cc1c[nH]c2ccccc12)C(=O)N1CCC[C@H]1C(=O)N[C@@H](CCCNC(=N)N)C(=O)N[C@@H](CC(C)C)C(=O)N1CCC[C@H]1C(=O)N[C@@H](CCCNC(=N)N)C(=O)N1CCC[C@H]1C(=O)N[C@@H](CCCNC(=N)N)C(=O)N[C@@H](Cc1c[nH]c2ccccc12)C(=O)N[C@@H](CCCNC(=N)N)C(=O)O` [B7-005] (H-WRIRRRWPRLPRPRWR-OH), the “concentration up to which there were no detectable effects” value in data set [1] was at least 128 µM. Further, the pIC50 in data set [1] (MTS, HESFM + 10% FBS, n ≥ 9) is about 3.59; in data set [4] it was about 4.32. The “proteolytic degradation by serum proteases” value in data set [2] is given as “excluded rapid proteolytic degradation”. Besides, the “MIC of B7-005” value in data set [3] (0% human serum in MH medium, visual, 18 h at 37°C, mode of n = 3) is 1 µM; in data set [3] (20% (v/v) human serum in MH medium, 18 h at 37°C, mode of n = 3) it was 2 µM; in data set [3] (20–30% (v/v) human serum) it was 2 µM; in data set [3] (25% (v/v) human serum in MH medium, 18 h at 37°C, mode of n = 3) it was 2 µM; in data set [3] (30% (v/v) human serum in MH medium, 18 h at 37°C, mode of n = 3) it was 2 µM; in data set [3] (40% (v/v) human serum in MH medium, 18 h at 37°C, mode of n = 3), 4 µM. Further, the “MIC of B7-005” value in data set [3] (50% (v/v) human serum in MH medium, 18 h at 37°C, mode of n = 3) is 8 µM.
